# Like-named read-outs stand apart in the source and are kept apart here.
# B1: Pseudomonas aeruginosa (Shinabarger et al 1991): Bifunctional GDP-Man-PP from Pseudomonas aeruginosa with phosphomannose isomerase and pyrophosphorylase activity (protein, UniProt P07874 1-481, looked up)
# Alginate biosynthesis protein …: MIPVILSGGSGSRLWPLSRKQYPKQFLALTGDDTLFQQTIKRLAFDGMQAPLLVCNKEHRFIVQEQLEAQNLASQAILLEPFGRNTAPAVAIAAMKLVAEGRDELLLILPADHVIEDQRAFQQALALATNAAEKGEMVLFGIPASRPETGYGYIRASADAQLPEGVSRVQSFVEKPDEARAREFVAAGGYYWNSGMFLFRASRYLEELKKHDADIYDTCLLALERSQHDGDLVNIDAATFECCPDNSIDYAVMEKTSRACVVPLSAGWNDVGSWSSIWDVHAKDANGNVTKGDVLVHDSHNCLVHGNGKLVSVIGLEDIVVVETKDAMMIAHKDRVQDVKHVVKDLDAQGRSETQNHCEVYRPWGSYDSVDMGGRFQVKHITVKPGARLSLQMHHHRAEHWIVVSGTAQVTCDDKTFLLTENQSTYIPIASVHRLANPGKIPLEIIEVQSGSYLGEDDIERLEDVYGRTAEPALQVVAGSR
# How the values were obtained:
# [1] = tested on: pyrophosphorylases in Escherichia coli BL21(DE3)pLysSpERJ-1 raw extract; assay: NUSSA screening of pyrophosphorylases in E. coli raw extract; format: biochemical; conditions: 20 μg/mL raw extract
# Protocol: (§1) The total volume was 200 μL.
# 2) Example: Use of NUSSA for screening pyrophoshorylases in two different enzyme sources: a) Escherichia coli BL21(DE3)pLysSpERJ-1
# (§2) For using the test, the PPIPFK has to be purified. As a simple and easily available enzyme source, potatoes were selected (Solanum tuberosum L.) . The purification was carried out according to the method described by van Schaftingen et al., 1982 in Eur. J. Biochem., Vol. 129, pp. 191-195. The enzyme (PPIPFK) was stored in 25% glycerin at -20° C.
# (§3) Escherichia Coli BL21(DE3)pLysSpERJ-1 was cultured and broken up as described above. The resulting raw homogenate was centrifuged at 10,000 rpm for 2 min, and at 20° C., then used in the enzyme test (21.02 mg/mL). The rice was broken up according to Elling, 1993, German Patent DE 4,221,595 Cl, at 10,000 rpm, 10 min, 20° C., and it was used as a raw extract (4.26 mg/mL) in the enzyme screening. The substrates tested were: […]
# (§4) a) Nucleoside triphosphate: ATP, CTP, GTP, UTP, dTTP, each at 1 mM in the test with glucose-1-phosphate (2.5 mM) b) Nucleoside triphosphate UTP (1 mM)
# (§5) Sugar-1-phosphate, each at 2.5 mM in the test
# [2] = biological target: T1, GDP-mannose pyrophosphorylase (Salmonella typhimurium, UniProt P26404); format: biochemical, Salmonella enterica, group B; conditions: for kmax value: GTP varied at 0.08 mM M-1-P, M-1-P varied at 2 mM GTP
# T1 construct: made in house; host or cells: Escherichia coli BL21(DE3)pLysS with pERJ-1 (pT7-6/rfbM)
# T1 sequence (P26404 whole entry): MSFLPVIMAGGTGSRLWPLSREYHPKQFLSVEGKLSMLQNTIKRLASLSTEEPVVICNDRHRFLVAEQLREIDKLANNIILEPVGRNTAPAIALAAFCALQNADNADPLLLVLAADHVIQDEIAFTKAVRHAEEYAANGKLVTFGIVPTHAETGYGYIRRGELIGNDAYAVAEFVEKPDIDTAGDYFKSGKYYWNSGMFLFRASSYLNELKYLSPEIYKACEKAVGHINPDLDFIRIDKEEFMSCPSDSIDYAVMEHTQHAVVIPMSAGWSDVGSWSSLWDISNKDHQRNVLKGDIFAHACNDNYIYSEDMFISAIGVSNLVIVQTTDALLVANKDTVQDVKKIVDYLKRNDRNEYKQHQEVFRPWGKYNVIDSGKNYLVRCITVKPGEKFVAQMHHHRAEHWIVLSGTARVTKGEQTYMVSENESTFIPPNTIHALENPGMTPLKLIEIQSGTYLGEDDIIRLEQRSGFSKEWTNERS
# Protocol: (§6) GTP was used at concentrations of 0.01-10 mM (FIG. 7).
# b) Nucleoside triphosphate: GTP
# Sugar-1-phosphates: Glucose-1-P, N-acetylglucosamine-1-P-, glucosamine-1-P, galactose-1-P, galactosamine-1-P, N-acetylgalactosamine-1-P, glucuronic acid-1-P, galacturonic acid-1-P, xylose-1-P, mannose-1-P
# as §1
# [3] = biological target: Salmonella enterica group B (formerly Salmonella typhimurium LT2) GDP-mannose pyrophosphorylase (rfb M, EC 2.7.7.13), recombinant from E. coli BL21(DE3)pLysSpERJ-1 (Salmonella typhimurium, UniProt P26404); assay: biochemical
# Sequence of Salmonella enterica group B (formerly Salmonella typhimurium LT2) GDP-mannose pyrophosphorylase (rfb M, EC 2.7.7.13), recombinant from E. coli BL21(DE3)pLysSpERJ-1 (P26404 whole entry): as above
# Excerpt: (§7) In the manner described below, it is possible to determine, by the use of the substrates (sugar-1-phosphates or sugar in the case of neuraminic acid) and nucleoside triphosphates any pyrophosphorylase activity which presents an activity in the test mixture of≧0.2 mU/mL.
# The enzyme test (Nucleotidyl transferase substrate screening assay ‘NUSSA’) is based on the fact that in the nucleotidyl transferase reaction (EC 2.7-7), pyrophosphate is produced with a pyrophosphate-dependent phosphofructokinase (PPiPFK from plants or bacteria EC 2.7.1.90) with fructose-6-phosphate and in the presence of fructose-2,6-diphosphate to make fructose-1,6-diphosphates. This product is cleaved with an aldolase to form dihydroxyacetone phosphate (DHAP) and glycerin-3-phosphate (GAP). From glycerinaldehyde-3-phosphate, dihydroxyacetone phosphate is produced with the triose phosphate isomerase. Finally, dihydroxyacetone phosphate is reduced with glycerin-3-phosphate dehydrogenase to glycerin-3-phosphate (G-3-P) with NADH. 2 mol of NADH are used per mol of pyrophosphate; this consumption can be monitored by photometry.
# 3) Influence of GDP-mannose on the synthesis
# The concentration of GTP was varied between 0.08mM and 6 mm.
# The GDP-mannose was used at 0μM, 50 μM, and 100 μM in the test. […]
# (§8) The total volume was 200 μL. The preparations were measured in a Titertek photometer molecular device, Munich, by photometry. […]
# [4] = biological target: Salmonella enterica group B (formerly Salmonella typhimurium LT2) GDP-mannose pyrophosphorylase (rfb M, EC 2.7.7.13), recombinant from E. coli BL21(DE3)pLysSpER (Salmonella typhimurium, UniProt P26404)
# Sequence of Salmonella enterica group B (formerly Salmonella typhimurium LT2) GDP-mannose pyrophosphorylase (rfb M, EC 2.7.7.13), recombinant from E. coli BL21(DE3)pLysSpER (P26404 whole entry): as above
# Protocol: as §6, §1
# [5] = tested on: pyrophosphorylases in rice (Oryza sativa L.) raw extract; assay: NUSSA screening of pyrophosphorylases in rice raw extract; format: biochemical
# Protocol: as §1
# 2) Example: Use of NUSSA for screening pyrophoshorylases in two different enzyme sources: b) Rice (Oryza sativa L.)
# as §2, §3, §4, §5
# [6] = tested on: Nc1nc2c(ncn2[C@@H]2O[C@H](COP(=O)(O)OP(=O)(O)OP(=O)(O)O)[C@@H](O)[C@H]2O)c(=O)[nH]1; assay: purified protein, by the assay type; conditions: other: GTP 0.01-10 mM, mannose-1-phosphate constant 0.08 mM, NUSSA, Tris-HCl pH 8
# Excerpt: as §7
# The enzyme test (Nucleotidyl transferase substrate screening assay ‘NUSSA’) is based on the fact that in the nucleotidyl transferase reaction (EC 2.7-7), pyrophosphate is produced with a pyrophosphate-dependent phosphofructokinase (PPiPFK from plants or bacteria EC 2.7.1.90) with fructose-6-phosphate and in the presence of fructose-2,6-diphosphate to make fructose-1,6-diphosphates. This product is cleaved with an aldolase to form dihydroxyacetone phosphate (DHAP) and glycerin-3-phosphate (GAP). From glycerinaldehyde-3-phosphate, dihydroxyacetone phosphate is produced with the triose phosphate isomerase. Finally, dihydroxyacetone phosphate is reduced with glycerin-3-phosphate dehydrogenase to glycerin-3-phosphate (G-3-P) with NADH. 2 mol of NADH are used per mol of pyrophosphate; this consumption can be monitored by photometry. [drawing 3]
# GTP was used at concentrations of 0.01-10 mM (FIG. 7). […]
# as §8
# [7] = tested on: O=P(O)(O)O[C@H]1O[C@H](CO)[C@@H](O)[C@H](O)[C@@H]1O; assay: purified protein, by the assay type; conditions: other: mannose-1-phosphate 0.002-0.6 mM, GTP constant 2 mM, NUSSA, Tris-HCl pH 8
# [8] = literature, cited from earlier work
# [9] = NTP 1 mM with α-D-glucose-1-phosphate 2.5 mM
# [10] = α-D-sugar-1-phosphate 2.5 mM with GTP 1 mM
# [11] = NTP 1 mM with α-D-glucose-1-phosphate 2.5 mM, 1.06 μg/mL-0.14 mg/mL raw extract
# [12] = α-D-sugar-1-phosphate 2.5 mM with UTP 1 mM
molecule,measurement,setting,value
Nc1ncnc2c1ncn2[C@@H]1O[C@H](COP(=O)(O)OP(=O)(O)OP(=O)(O)O)[C@@H](O)[C@H]1O [ATP],"Specific activity of pyrophosphorylases, E. coli",[1]; [9],2.76 mU/mg
Nc1ccn([C@@H]2O[C@H](COP(=O)(O)OP(=O)(O)OP(=O)(O)O)[C@@H](O)[C@H]2O)c(=O)n1 [CTP],"Specific activity of pyrophosphorylases, E. coli",[1]; [9],0.75 mU/mg
"Nc1nc2c(ncn2[C@@H]2O[C@H](COP(=O)(O)OP(=O)(O)O[C@H]3O[C@H](CO)[C@@H](O)[C@H](O)[C@@H]3O)[C@@H](O)[C@H]2O)c(=O)[nH]1 [GDP-mannose, GDP-alpha-D-mannose]",type of inhibition with respect to M-1-P,"[2]; GTP constant 2 mM, M-1-P 0.003-0.3 mM",noncompetitive inhibition
same,type of inhibition with respect to GTP,"[2]; M-1-P constant 0.08 mM, GTP 0.08-6 mM",competitive inhibition
same,Ki,[3],14.9 µM
same,Ki,"[3]; Ki value, noncompetitive inhibition with respect to M-1-P, mannose-1-phosphate 0.003-0.3 mM, GTP constant 2 mM, 5.67 μg/mL enzyme",118 µM
Nc1nc2c(ncn2[C@@H]2O[C@H](COP(=O)(O)OP(=O)(O)OP(=O)(O)O)[C@@H](O)[C@H]2O)c(=O)[nH]1 [GTP],kmax value,[2],2.4 U/mg
same,kmax value (GTP),[4]; pH 8,2.4 U/mg
"O=P(O)(O)O[C@H]1O[C@H](CO)[C@@H](O)[C@H](O)[C@@H]1O [M-1-P, mannose-1-phosphate]",kmax value,[2],1.8 U/mg
same,"Specific activity of pyrophosphorylases, E. coli",[1]; [10],3.41 mU/mg
same,"Specific activity of pyrophosphorylases, rice",[5]; [10],1.51 mU/mg
same,kmax value (M-1-P),"[4]; vmax, mannose-1-phosphate 0.002-0.6 mM, GTP constant 2 mM, NUSSA, Tris-HCl pH 8",1.8 U/mg
O=c1ccn([C@@H]2O[C@H](COP(=O)(O)OP(=O)(O)OP(=O)(O)O)[C@@H](O)[C@H]2O)c(=O)[nH]1 [UTP],"Specific activity of pyrophosphorylases, E. coli",[1]; [9],214.10 mU/mg
same,"Specific activity of pyrophosphorylases, rice",[5]; [11],982.40 mU/mg
Cc1cn([C@H]2C[C@H](O)[C@@H](COP(=O)(O)OP(=O)(O)OP(=O)(O)O)O2)c(=O)[nH]c1=O [dTTP],"Specific activity of pyrophosphorylases, E. coli",[1]; [9],10.32 mU/mg
same,"Specific activity of pyrophosphorylases, rice",[5]; [11],5.98 mU/mg
"CC(=O)N[C@H]1[C@@H](OP(=O)(O)O)O[C@H](CO)[C@H](O)[C@@H]1O [α-D-GalNAc-1-P, N-acetylgalactosamine-1-P]","Specific activity of pyrophosphorylases, rice",[5]; [12],0.18 mU/mg
"O=C(O)[C@H]1O[C@H](OP(=O)(O)O)[C@H](O)[C@@H](O)[C@H]1O [α-D-Galacrurons{overscore (a)}ure-1-P, α-D-Galacturonic acid-1-P]","Specific activity of pyrophosphorylases, E. coli",[1]; [12],3.66 mU/mg
same,"Specific activity of pyrophosphorylases, rice",[5]; [12],2.94 mU/mg
N[C@H]1[C@@H](OP(=O)(O)O)O[C@H](CO)[C@H](O)[C@@H]1O [α-D-Galactosamin-1-P],"Specific activity of pyrophosphorylases, rice",[5]; [12],0.25 mU/mg
O=P(O)(O)O[C@H]1O[C@H](CO)[C@H](O)[C@H](O)[C@H]1O [α-D-Galactose-1-P],"Specific activity of pyrophosphorylases, E. coli",[1]; [12],1 mU/mg
same,"Specific activity of pyrophosphorylases, rice",[5]; [12],10.41 mU/mg
"CC(=O)N[C@H]1[C@@H](OP(=O)(O)O)O[C@H](CO)[C@@H](O)[C@@H]1O [α-D-GlcNAc-1, N-acetylglucosamine-1-P-]","Specific activity of pyrophosphorylases, E. coli",[1]; [12],2.02 mU/mg
same,"Specific activity of pyrophosphorylases, rice",[5]; [12],0.27 mU/mg
"N[C@H]1[C@H](OP(=O)(O)O)O[C@H](CO)[C@@H](O)[C@@H]1O [α-D-Glucosamin-1-P, α-D-Glucosamine-1-P]","Specific activity of pyrophosphorylases, E. coli",[1]; [12],2.75 mU/mg
"O=C(O)[C@H]1O[C@H](OP(=O)(O)O)[C@H](O)[C@@H](O)[C@@H]1O [α-D-Glucurons{overscore (a)}ure-1-P, α-D-Glucuronic acid-1-P]","Specific activity of pyrophosphorylases, E. coli",[1]; [12],4.72 mU/mg
same,"Specific activity of pyrophosphorylases, rice",[5]; [12],14.27 mU/mg
O=P(O)(O)O[C@H]1OC[C@@H](O)[C@H](O)[C@H]1O [α-D-Xylose-1-P],"Specific activity of pyrophosphorylases, rice",[5]; [12],0.42 mU/mg
"Salmonella enterica group B (formerly Salmonella typhimurium LT2) GDP-mannose pyrophosphorylase (rfb M, EC 2.7.7.13), recombinant from E. coli BL21(DE3)pLysSpERJ-1 (Salmonella enterica subsp. enterica serovar Typhimurium str. LT2)",Km,[6],0.2 mM mM
same,Km,[7],0.01 mm mm
B1,Specific activity after purification,[8]; after purification,6.12 U/mg Protein
same,Specific activities Raw extract,[8]; raw extract,0.397 U/mg Protein

# — patent publication US20030082752A1, “Enzymatic process for producing GDP-alpha-D-mannose, a GDP mannose pyrophosphorylase and phosphomannomutase suitable for that process, the extraction of the said enzymes, and an enzyme test” (priority 1995, published 2003)
